Experimental findings from ChEMBL document CHEMBL4033624, “Synthesis and evaluation of adenosine containing 3-arylfuran-2(5H)-ones as tyrosyl-tRNA synthetase inhibitors” (Eur J Med Chem, 2017) are described below.

≈ marks a conversion by molar mass, not a printed value.

The subject of one test is Staphylococcus aureus. Description: Antibacterial activity against Staphylococcus aureus ATCC 6538 after 4 to 5 hrs by MTT assay. It is filed as functional.
A further test relates to Pseudomonas aeruginosa. Briefly: Antibacterial activity against Pseudomonas aeruginosa ATCC 9027 after 4 to 5 hrs by MTT assay. It is filed as functional.
In a further test the test system is Escherichia coli. Description: Antibacterial activity against Escherichia coli ATCC 8739 after 4 to 5 hrs by MTT assay. It is filed as functional.
Test [1] in a line: Inhibition of TyrRS (unknown origin) expressed in Escherichia coli using L-[ring-3,5-3H] tyrosine as substrate preincubated for 10 mins followed by substrate addition measured by liquid scintillation counting method. Details: species or system Bacteria.

`CC1(C)S[C@@H]2[C@H](NC(=O)Cc3ccccc3)C(=O)N2[C@H]1C(=O)[O-].[Na+]` [PENICILLIN G SODIUM] yielded an MIC50 against Staphylococcus aureus of 0.57 µg/mL.
As for `O=C(O)c1cn(C2CC2)c2cc(N3CCNCC3)c(F)cc2c1=O` [CIPROFLOXACIN], the MIC50 amounted to 0.64 µg/mL (≈ 1.93 µM) with Pseudomonas aeruginosa and 0.1 µg/mL (≈ 0.302 µM) in the test on Escherichia coli.
On to `Nc1ncnc2c1ncn2[C@@H]1O[C@H](CNC(=O)c2cccc(Br)c2)[C@@H](O)[C@H]1O`, for which the MIC50 against Pseudomonas aeruginosa, with Escherichia coli and in the test on Staphylococcus aureus was more than 100 µg/mL throughout. Also, half-maximal inhibition in test [1] (IC50) required 94.5 µM.
Regarding `CCOc1ccc(C2=C(OCC(=O)NC[C@H]3O[C@@H](n4cnc5c(N)ncnc54)[C@H](O)[C@@H]3O)COC2=O)cc1OCC`, the MIC50 with Pseudomonas aeruginosa, in the test on Escherichia coli and in the test with Staphylococcus aureus was more than 100 µg/mL in each case. In test [1], the IC50 is more than 100 µM.
On to `Nc1ncnc2c1ncn2[C@@H]1O[C@H](CNC(=O)COC2=C(c3ccc(F)cc3)C(=O)OC2)[C@@H](O)[C@H]1O`, for which the MIC50 against Pseudomonas aeruginosa was found to be 47.4 µg/mL (≈ 94.7 µM); with Escherichia coli it was 39.2 µg/mL (≈ 78.3 µM); in the test with Staphylococcus aureus, 72.7 µg/mL (≈ 145 µM). Besides, half-maximal inhibition in test [1] (IC50) required 31.7 µM.
The like results for `CC1(C)O[C@@H]2[C@H](O1)[C@@H](CNC(=O)COC1=C(c3ccc(Cl)c(Cl)c3)C(=O)OC1)O[C@H]2n1cnc2c(N)ncnc21` were, in that order, 63.7 µg/mL (≈ 108 µM), 60.2 µg/mL (≈ 102 µM), 90.7 µg/mL (≈ 153 µM) and 33.4 µM.
The like results for `CC1(C)O[C@@H]2[C@H](O1)[C@@H](CNC(=O)COC1=C(c3ccc(Cl)cc3Cl)C(=O)OC1)O[C@H]2n1cnc2c(N)ncnc21` were, in that order, 90.9 µg/mL (≈ 154 µM), more than 100 µg/mL, more than 100 µg/mL and 83.8 µM.
In the same order, the values of `CC1(C)O[C@@H]2[C@H](O1)[C@@H](CNC(=O)COC1=C(c3cccc(F)c3)C(=O)OC1)O[C@H]2n1cnc2c(N)ncnc21` are 82.8 µg/mL (≈ 153 µM), 83.6 µg/mL (≈ 155 µM), more than 100 µg/mL and 56 µM.
Regarding `CCOc1ccc(C2=C(OCC(=O)NC[C@H]3O[C@@H](n4cnc5c(N)ncnc54)[C@@H]4OC(C)(C)O[C@@H]43)COC2=O)cc1OCC`, the MIC50 in the test with Pseudomonas aeruginosa, in the test on Escherichia coli and in the test with Staphylococcus aureus was more than 100 µg/mL throughout. In addition, the IC50 in test [1] was more than 100 µM.
Regarding `CC1(C)O[C@@H]2[C@H](O1)[C@@H](CNC(=O)COC1=C(c3ccc(F)cc3)C(=O)OC1)O[C@H]2n1cnc2c(N)ncnc21`, the MIC50 in the test on Pseudomonas aeruginosa, in the test with Escherichia coli and with Staphylococcus aureus was more than 100 µg/mL in each case. The molecule further showed an IC50 in test [1] of more than 100 µM.
On to `COc1ccc(C2=C(OCC(=O)NC[C@H]3O[C@@H](n4cnc5c(N)ncnc54)[C@H](O)[C@@H]3O)COC2=O)cc1OC`, for which the MIC50 with Pseudomonas aeruginosa, against Escherichia coli and in the test with Staphylococcus aureus was more than 100 µg/mL throughout. Besides, the IC50 in test [1] is more than 100 µM.
With `COc1ccc(C2=C(OCC(=O)NC[C@H]3O[C@@H](n4cnc5c(N)ncnc54)[C@@H]4OC(C)(C)O[C@@H]43)COC2=O)cc1OC`, the MIC50 in the test with Pseudomonas aeruginosa, against Escherichia coli and with Staphylococcus aureus was more than 100 µg/mL each time. This molecule came in with an IC50 in test [1] of more than 100 µM.
For `CC1(C)O[C@@H]2[C@H](O1)[C@@H](CNC(=O)c1cccc(Br)c1)O[C@H]2n1cnc2c(N)ncnc21`, the MIC50 with Pseudomonas aeruginosa, in the test with Escherichia coli and in the test on Staphylococcus aureus was more than 100 µg/mL throughout. The molecule further gave an IC50 in test [1] of more than 100 µM.
Turning to `CC1(C)O[C@@H]2[C@H](O1)[C@@H](CNC(=O)COC1=C(c3ccc(Cl)cc3)C(=O)OC1)O[C@H]2n1cnc2c(N)ncnc21`, the MIC50 amounted to 21.4 µg/mL (≈ 38.4 µM) with Pseudomonas aeruginosa, 20.3 µg/mL (≈ 36.4 µM) against Escherichia coli and 39.6 µg/mL (≈ 71.1 µM) against Staphylococcus aureus. Also, the IC50 in test [1] is 22.7 µM.
The like results for `Nc1ncnc2c1ncn2[C@@H]1O[C@H](CNC(=O)COC2=C(c3ccc(Cl)cc3Cl)C(=O)OC2)[C@@H](O)[C@H]1O` were, in that order, 33.6 µg/mL (≈ 60.9 µM), 29.4 µg/mL (≈ 53.3 µM), 55.4 µg/mL (≈ 100 µM) and 26.1 µM.
The like results for `Nc1ncnc2c1ncn2[C@@H]1O[C@H](CNC(=O)COC2=C(c3ccc(Br)cc3)C(=O)OC2)[C@@H](O)[C@H]1O` were, in that order, 40.5 µg/mL (≈ 72.1 µM), 46.6 µg/mL (≈ 83 µM), 75.1 µg/mL (≈ 134 µM) and 29.1 µM.
In the case of `CC1(C)O[C@@H]2[C@H](O1)[C@@H](CNC(=O)COC1=C(c3ccc(Br)cc3)C(=O)OC1)O[C@H]2n1cnc2c(N)ncnc21`, the MIC50 against Pseudomonas aeruginosa was more than 100 µg/mL; in the test on Escherichia coli, 98.6 µg/mL (≈ 164 µM); with Staphylococcus aureus, more than 100 µg/mL. In test [1], this molecule came in with an IC50 of 92.6 µM.
Regarding `CC1(C)O[C@@H]2[C@H](O1)[C@@H](CNC(=O)COC1=C(c3ccccc3Cl)C(=O)OC1)O[C@H]2n1cnc2c(N)ncnc21`, the results for the MIC50 in the test with Pseudomonas aeruginosa, with Escherichia coli and in the test with Staphylococcus aureus were 25.6 µg/mL (≈ 46 µM), 15.8 µg/mL (≈ 28.4 µM) and 30.3 µg/mL (≈ 54.4 µM), respectively. This molecule also had an IC50 in test [1] of 24.3 µM.
